Series [1] deals with T1, membrane-bound rMpAOX (Moniliophthora perniciosa, UniProt A8QJP8). Briefly: Dose-response assay of inhibitors with membrane-bound, GMP-activated rMpAOX (NADH oxidation). In kind it is biochemical. The conditions noted are these: for IC50: membrane-bound, GMP-activated rMpAOX, read-out: IC50. As to the method: (§1) E. coli membrane preparation was performed as described with minor modifications. […] The cells were disrupted using two passes at […] through a pre-cooled Constant cell disruption system (Constant Systems Ltd). The lysate was centrifuged for 15 min at 16,000 rcf, and the pelleted unbroken cells and large cell debris were discarded. The supernatant was centrifuged for 90 min at 200,000 rcf to collect the fragmented membranes.
(§2) Respiration rates were recorded before and after the addition of putative AOX activators, such as 5′-ADP, 5′-AMP, 5′-GDP, 5′-GMP, glyoxylate, oxaloacetate, pyruvate or succinate (1 mM each unless stated otherwise). […] Data were acquired with the Multiskan FC Microplate Photometer (ThermoFisher). […] Absorbance readings were taken periodically and a blank reactions (substrate without enzyme) were included in every assay and were used to determine and subtract the autoxidation rate (background). Proteoliposomes were assayed as described for the E. coli membrane fraction except that no KCN was included and 0.5 µL of the prep (~50 ng rMpAOX) were added into the reaction. When tested, inhibitors were preincubated with the enzyme in reaction buffer for 2–5 min before starting the reaction by the addition of substrate. The path length (i.e., the height of the reaction medium inside the well) was calculated based on the reaction volume and the well cross-section area informed by the supplier. GraphPad Prism 7.0 (GraphPad Software Inc.) was used for function fitting.

Series [2] deals with T1, membrane-bound rMpAOX. Briefly: Membrane-bound rMpAOX activity with putative activators (O2 uptake, oxygraph; dose-response).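 On Fractional velocity, %: 100% is the maximal rate reached in the activator titration.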 The class given is biochemical. As to conditions: for Fold-change in membrane-bound rMpAOX O2 uptake: 1 mM each. As for the experimental part: as §1, §2
[3] abbreviates: log[I], M -4.60206 (Fig2b), 25 µM.
Where [4] appears, read: log[I], M -5.60206 (Fig2b), 2.5 µM.
Where [5] appears, read: log[I], M -6.60206 (Fig2b), 0.25 µM.
Setting [6] is: log[I], M -6.60206 (Fig2b), read-out: Fractional velocity, %.
[7] abbreviates: log[I], M -7.60206 (Fig2b), 0.025 µM.
The mark [8] stands for this setting: log[I], M -7.60206 (Fig2b), read-out: Fractional velocity, %.
Where [9] appears, read: log[I], M -8.60206 (Fig2b), 0.0025 µM.
Where [10] appears, read: log[I], M -8.60206 (Fig2b), read-out: Fractional velocity, %.
Where [11] appears, read: log[I], M -9.60206 (Fig2b), 0.00025 µM.
Setting [12] is: log[I], M -9.60206 (Fig2b), read-out: Fractional velocity, %.
The mark [13] stands for this setting: log[I], M -10.6021 (Fig2b), 25 pM.
Setting [14] is: log[I], M -10.6021 (Fig2b), read-out: Fractional velocity, %.
Where [15] appears, read: single independent measurements (Fig1a).

Structures are written as SMILES. Where “and” joins values, the source holds several entries; their conditions need not be identical. Identical values can stand only once. Like-named read-outs stand apart in the source and are kept apart here.

T1 sequence (A8QJP8 entry or part of it): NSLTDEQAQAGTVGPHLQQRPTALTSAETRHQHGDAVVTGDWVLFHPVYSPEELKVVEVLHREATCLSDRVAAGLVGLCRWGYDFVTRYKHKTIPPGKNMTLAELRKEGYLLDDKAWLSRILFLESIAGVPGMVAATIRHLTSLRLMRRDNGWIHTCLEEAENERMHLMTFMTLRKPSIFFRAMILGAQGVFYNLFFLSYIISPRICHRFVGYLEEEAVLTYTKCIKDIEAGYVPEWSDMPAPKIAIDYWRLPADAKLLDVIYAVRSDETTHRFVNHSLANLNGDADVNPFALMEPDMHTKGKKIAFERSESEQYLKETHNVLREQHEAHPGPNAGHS

As to `CCCCCCCCOC(=O)c1cc(O)c(O)c(O)c1` [OG, octyl gallate], the “Fractional velocity, %” value in series [1] (setting [3]) is 3.004% and 2.353% and 7.7435%; in series [1] (setting [4]), 37.6641% and 53.0018% and 32.2387%; in series [1] (setting [5]), 91.8565% and 76.0465%; in series [1] (setting [7]), 96.9123% and 87.3681%; in series [1] (setting [9]), 100.043% and 88.594%; in series [1] (setting [11]), 96.5387% and 94.2199%. Besides, the “Fractional velocity, %” value in series [1] (setting [13]) is 93.2034% and 90.1921%. Further, the activity at 0.25 µM in series [1] (setting [6]) stood at 92.7%. Besides, the activity at 0.025 µM in series [1] (setting [8]) stood at 99%. The activity at 0.0025 µM in series [1] (setting [10]) came out at 98.8%. Besides, the activity at 0.00025 µM in series [1] (setting [12]) is 98%. Further, the activity at 25 pM in series [1] (setting [14]) came to 93.9%. For the same molecule, in series [1], the half-inhibitory concentration (IC50) was found to be 1.67 µM.

`Nc1ncnc2c1ncn2[C@@H]1O[C@H](COP(=O)(O)O)[C@@H](O)[C@H]1O` [AMP, 5′-AMP]: in series [2] (1 mM activator), the “Increase of membrane-bound rMpAOX oxygen uptake” value was 8.1 times. In series [2] (setting [15]), the “Fold-change in membrane-bound rMpAOX O2 uptake” value was 7.569 and 7.49 and 9.2495. The “Fractional velocity, %” value was 22.2% and 18.4% in series [2] ([activator] 0.025 mM (Fig1b)); 33.8% and 27.9% in series [2] ([activator] 0.075 mM (Fig1b)); 53.8% and 45.3% in series [2] ([activator] 0.175 mM (Fig1b)); 81.6% and 66.1% in series [2] ([activator] 0.375 mM (Fig1b)); 102% and 87.9% in series [2] ([activator] 0.625 mM (Fig1b)); 134.8% and 120.3% in series [2] ([activator] 1.125 mM (Fig1b)). The “Fractional velocity, %” value is 172.4% and 157.6% in series [2] ([activator] 2.125 mM (Fig1b)); 201.8% and 188.2% in series [2] ([activator] 4.125 mM (Fig1b)); 199.8% in series [2] ([activator] 6.625 mM (Fig1b)). In addition, the concentration for a half-maximal effect (EC50) in series [2] (membrane-bound rMpAOX, 4-parameter sigmoid fit, read-out: EC50 of rMpAOX activation) is 918 µM and 910 µM.

`O=C(NO)c1ccccc1O` [SHAM, salicylhydroxamic acid]: the “Fractional velocity, %” value is 95.8272% and 90.1105% in series [1] (setting [3]); 96.6342% and 84.7725% in series [1] (setting [4]); 99.0344% and 87.1837% in series [1] (setting [5]); 97.5117% and 94.5942% in series [1] (setting [7]); 99.3055% and 95.1323% in series [1] (setting [9]); 99.8162% and 99.1897% in series [1] (setting [11]). Further, the “Fractional velocity, %” value in series [1] (setting [13]) is 99.1867% and 91.0587%. Also, the activity at 25 µM in series [1] (read-out: Fractional velocity, %, log[I], M -4.60206 (Fig2b)) turned out to be 96.4%. Moreover, the activity at 2.5 µM in series [1] (read-out: Fractional velocity, %, log[I], M -5.60206 (Fig2b)) was 98%. The activity at 0.25 µM in series [1] (read-out: Fractional velocity, %, log[I], M -6.60206 (Fig2b)) stood at 96.1%. In addition, the activity at 0.025 µM in series [1] (read-out: Fractional velocity, %, log[I], M -7.60206 (Fig2b)) is 95.6%. Also, the activity at 0.0025 µM in series [1] (read-out: Fractional velocity, %, log[I], M -8.60206 (Fig2b)) is 94.9%. Further, the activity at 0.00025 µM in series [1] (read-out: Fractional velocity, %, log[I], M -9.60206 (Fig2b)) was 93.7%. For the same molecule, the activity at 25 pM in series [1] (read-out: Fractional velocity, %, log[I], M -10.6021 (Fig2b)) was found to be 88.7%. The “Effect on membrane-bound rMpAOX” value in series [1] (up to the maximal tested concentration of 25 µM) is reported as “did not exert any effect”.

On to `O=C(O)CC(=O)C(=O)O` [OXAL, oxaloacetate], for which the “Fold-change in membrane-bound rMpAOX O2 uptake” value in series [2] (single independent measurements (Fig1a), 1000 µM) was 0.932 and 1.186. Further, the fold induction at 1000 µM in series [2] (pH 7.5, 1 mM each, single independent measurements (Fig1a), read-out: Fold-change in membrane-bound rMpAOX O2 uptake) amounted to 0.847.

Turning to `O=CC(=O)O` [GLYOX, glyoxylate], the “Fold-change in membrane-bound rMpAOX O2 uptake” value in series [2] (setting [15]) is 0.6271 and 0.9309 and 0.7633.

For the molecule `CC(C)=CCc1c(O)c(Cl)c(C)c(C=O)c1O` [CD, colletochlorin D], the “Fractional velocity, %” value is 6.725% and 4.7683% and 12.1201% in series [1] (setting [4]); 26.8171% and 38.1389% in series [1] (setting [5]); 83.3186% and 82.5195% in series [1] (setting [7]); 98.2807% and 91.2399% in series [1] (setting [9]); 94.0253% and 92.2465% in series [1] (setting [11]); 93.9344% and 89.9529% in series [1] (setting [13]). Also, the activity at 0.25 µM in series [1] (setting [6]) stood at 28%. In series [1] (setting [8]), the activity at 0.025 µM worked out at 81.9%. Besides, the activity at 0.0025 µM in series [1] (setting [10]) is 95.8%. Moreover, in series [1] (setting [12]), the activity at 0.00025 µM came out at 98%. Also, in series [1] (setting [14]), the activity at 25 pM came out at 94.5%. For the same molecule, in series [1], the half-inhibitory concentration (IC50) came out at 0.115 µM.
